According to patent publication US12186278B2, “Mesothelin chimeric antigen receptor (CAR) and antibody against PD-L1 inhibitor for combined use in anticancer therapy” (Novartis AG, priority 2015, dated 2025):

Tests used:
[1] = test system: huCART19 cells co-cultured with Nalm-6; experiment: CART proliferation in 4 day co-culture with Nalm-6 in the presence of RAD001; assay type: cell-based, human
Procedure: The effect of low doses of RAD001 on CAR T cell proliferation in vitro was evaluated by co-culturing CART-expressing cells with target cells in the presence of different concentrations of RAD001.
A humanized, anti-human CD19 CAR (huCART19) lentiviral transfer vector was used to produce the genomic material packaged into VSVg pseudotyped lentiviral particles. The amino acid and nucleotide sequence of the humanized anti-human CD19 CAR (huCART19) is CAR 1, ID 104875 described in PCT publication, WO2014/153270, filed Mar. 15, 2014, and is designated SEQ ID NOs. 85 and 31 therein.
Lentiviral transfer vector DNA is mixed with the three packaging components VSVg env, gag/pol and rev in combination with lipofectamine reagent to transfect Lenti-X 293T cells. Medium is changed after 24 h and 30 h thereafter, the virus-containing media is collected, filtered and stored at −80° C. CARTs are generated by transduction of fresh or frozen naïve T cells obtained by negative magnetic selection of healthy donor blood or leukopak. T cells are activated by incubation with anti-CD3/anti-CD28 beads for 24 h, after which viral supernatant or concentrated virus (MOI=2 or 10, respectively) is added to the cultures. The modified T cells are allowed to expand for about 10 days. The percentage of cells transduced (expressing the CARs on the cell surface) and the level of CAR expression (relative fluorescence intensity, Geo Mean) are determined by flow cytometric analysis between days 7 and 9. The combination of slowing growth rate and T cell size approaching ˜350 fL determines the state for T cells to be cryopreserved for later analysis.
To evaluate the functionality of CARTs, the T cells are thawed and counted, and viability is assessed by Cellometer. The number of CAR-positive cells in each culture is normalized using non-transduced T cells (UTD). […]
For measuring the proliferation of CARTs, T cells are cultured with target cells at a ratio of 1:1. […] The number of T cells is assessed by flow cytometry using counting beads as reference.

[2] = test system: NALM6-luc tumors; experiment: NALM6-luc tumor growth with daily RAD001 dosing; assay type: in vivo, NSG mice; settings: daily oral dosing of RAD001 alone, 0.3, 1, 3 and 10 mg/kg; FIG. 7
Procedure: NALM6-luc cells: The NALM6 human acute lymphoblastic leukemia (ALL) cell line was developed from the peripheral blood of a patient with relapsed ALL. The cells were then tagged with firefly luciferase. These suspension cells grow in RPMI supplemented with 10% heat inactivated fetal bovine serum.
Mice: 6 week old NSG (NOD.Cg-Prkdc^scidIl2rg^tm1Wjl/SzJ) mice were received from the Jackson Laboratory (stock number 005557).
(§1) Tumor implantation: NALM6-luc cells were grown and expanded in vitro in RPMI supplemented with 10% heat inactivated fetal bovine serum. The cells were then transferred to a 15 ml conical tube and washed twice with cold sterile PBS. NALM6-luc cells were then counted and resuspended at a concentration of 10×10^6 cells per milliliter of PBS. The cells were placed on ice and immediately (within one hour) implanted in the mice. NALM6-luc cells were injected intravenously via the tail vein in a 100 μl volume, for a total of 1×10^6 cells per mouse.
(§2) RAD001 dosing: A concentrated micro-emulsion of 50 mg equal to 1 mg RAD001 was formulated and then resuspended in D5W (dextrose 5% in water) at the time of dosing. Mice were orally dosed daily (via oral gavage) with 200 μl of the desired doses of RAD001.
PK analysis: Mice were dosed daily with RAD001 starting 7 days post tumor implantation. Dosing groups were as follows: 0.3 mg/kg, 1 mg/kg, 3 mg/kg, and 10 mg/kg. […]

[3] = Pharmacokinetic analysis of RAD001 in blood of NSG mice with NALM6 tumors; assay type: in vivo
Procedure: as §2
PK analysis: Mice were dosed daily with RAD001 starting 7 days post tumor implantation. Dosing groups were as follows: 0.3 mg/kg, 1 mg/kg, 3 mg/kg, and 10 mg/kg. Mice were bled on days 0 and 14 following the first and last dose of RAD001, at the following time points for PK analysis: 15 minutes, 30 minutes, 1 hour, 2 hours, 4 hours, 8 hours, 12 hours, and 24 hours.

[4] = test system: huCAR19 CAR T cells; experiment: In vivo proliferation of humanized CD19 CAR T cells with and without RAD001 dosing; design: species or system NSG mice
Procedure: This example evaluates the ability of huCAR19 cells to proliferate in vivo with different concentrations of RAD001.
as §1
CAR T cell dosing: Mice were administered 5×10^6 CAR T cells 7 days after tumor implantation. Cells were partially thawed in a 37 degree Celsius water bath and then completely thawed by the addition of 1 ml of cold sterile PBS to the tube containing the cells. The thawed cells were transferred to a 15 ml falcon tube and adjusted to a final volume of 10 mls with PBS. The cells were washed twice at 1000 rpm for 10 minutes each time and then counted on a hemocytometer. T cells were then resuspended at a concentration of 50×10^6 CAR T cells per ml of cold PBS and kept on ice until the mice were dosed. The mice were injected intravenously via the tail vein with 100 μl of the CAR T cells for a dose of 5×10^6 CAR T cells per mouse. Eight mice per group were treated either with 100 μl of PBS alone (PBS), or humanized CD19 CAR T cells.
as §2
Based on these doses, huCAR19 CAR T cells were dosed with and without RAD001 to determine the proliferative ability of these cells. The highest dose used was 3 mg/kg based on the levels of RAD001 in the blood 24 hours after dosing. As the concentration of RAD001 was above 10 nM 24 hours after the final dose of RAD001, several lower doses of RAD001 were used in the in vivo study with CAR T cells. The CAR T cells were dosed IV one day prior to the start of the daily oral RAD001 dosing. Mice were monitored via FACS for T cell expansion.

CO[C@H]1C[C@@H]2CC[C@@H](C)[C@@](O)(O2)C(=O)C(=O)N2CCCC[C@H]2C(=O)O[C@H]([C@H](C)C[C@@H]2CC[C@@H](OCCO)[C@H](OC)C2)CC(=O)[C@H](C)/C=C(\C)[C@@H](O)[C@@H](OC)C(=O)[C@H](C)C[C@H](C)/C=C/C=C/C=C/1C [RAD001, (1R,9S,12S,15R,16E,18R,19R,21R,23S,24E,26E,28E,30S,32S,35R)-1,18-dihydroxy-12-{(1R)-2-[(1S,3R,4R)-4-(2-hydroxyethoxy)-3-methoxycyclohexyl]-1-methylethyl}-19,30-dimethoxy-15,17,21,23,29,35-hexamethyl-11,36-dioxa-4-aza-tricyclo[30.3.1.04,9]hexatriaconta-16,24,26,28-tetraene-2,3,10,14,20-pentaone]
proliferation of huCART19 compared with no RAD001 ([1]; 0.0032 and 0.016 nM RAD001, 4 day co-culture with Nalm-6): higher than observed without the addition of RAD001
RAD001 concentration at which huCART19 cells expanded ([1]; 4 day co-culture with Nalm-6 at 1:1, to a lesser extent at higher concentrations, FIG. 6): less than 0.016 nM
proliferation of CAR-expressing, transduced T cells ([1]; low doses of RAD001, co-culture with Nalm-6, 4 days, FIG. 6 legend): enhanced
growth of NALM6-luc tumors [2]: did not have an impact
concentration at 24 h ([3]; NSG, mouse, blood, lowest dose tested (0.3 mg/kg), oral, day 0 and day 14 PK, read-out: RAD001 concentrations in the blood 24 hours after dosing): > 10 nM
concentration of RAD001 24 hours after the final dose ([3]; blood, NSG mice with NALM6 tumors): above 10 nM
stability in the blood of tumor bearing mice ([3]; daily oral RAD001, FIGS. 8A and 8B): fairly stable
CAR T cell proliferation relative to normal level of huCAR19 proliferation ([4]; RAD001 0.003 mg/kg daily, FIG. 9 legend): enhancement in CAR T cell proliferation
proliferation of the CAR T cells in vivo ([4]; lowest doses of RAD001, daily oral, huCAR19 CAR T cells IV one day before, FIGS. 9A and 9B): enhanced proliferation
enhanced proliferation, CD4+ CAR T cells compared with CD8+ CAR T cells ([4]; lowest doses of RAD001, FIG. 9A): more evident and prolonged
proliferation of CD8+ CAR T cells ([4]; lowest doses of RAD001, FIG. 9B): enhanced proliferation can be seen at early time points
